Assay results as given in patent publication US20060014801A1, “Prevention and treatment of cognitive impairment using (R)-(-)-5-methyl-1-nicotynoyl-2-pyrazoline (MNP) and analogs” (The Johns Hopkins University, priority 2002, published 2006).
Read-outs that look alike come from different tables or passages of the source.

Assay: Pharmacokinetics of MNP in the rat (plasma, LC/MS/MS)
Type: in vivo, male Sprague-Dawley rats
Details: for concentration at 5 min / concentration at 15 min / concentration at 30 min / concentration at 60 min / concentration at 120 min / concentration at 180 min / concentration at 240 min / concentration at 480 min / concentration at 720 min / concentration at 1440 min: mean ± s.e.m., 3 rats, read-out: MNP plasma levels
Experimental: Pharmacokinetic experiments were conducted. MNP was dissolved in saline solution (0.9% NaCl) and administered to male Sprague-Dawley rats (weighing 250-315 grams) with vascular catheters surgically placed in both jugular veins (Charles River, Wilmington, Mass.). The catheter on the left jugular vein was used for intravenous infusion of 5 mg/kg MNP (in the animals that received the i.v. dosing), while the catheter on the right jugular vein was used for blood sample collection. Oral doses of MNP (50 and 200 mg/kg) were administered by oral gavage. […] The samples were collected in heparin-coated microtainers, spun down in a microcentrifuge (14,000 rpm for 7 minutes) to separate out the blood plasma and frozen until analyzed. Plasma levels were quantitated by LC/MS/MS analysis (Applied Biosystems/MDS SCIEX API 3000).
The pharmacokinetic parameters Cmax, tmax, area-under-the-curve (AUC), clearance, and half-life (t1/2) were calculated for oral doses of MNP (50 and 200 mg/kg) and are described in Table II. These parameters are compared to the intravenous dose (5 mg/kg) to determine the oral bioavailability (Foral) of MNP in the rat. […] The roughly 30-minute terminal half-life calculated for the intravenous dose of MNP (5 mg/kg) was similar to previously reported data (Umemura et al., Stroke, 1996; 27:1624-1628).

[1] = male, Sprague-Dawley, plasma, intravenous, 5 mg/kg i.v.
[2] = male, Sprague-Dawley, plasma, iv, 5 mg/kg i.v., approximate value
[3] = male, Sprague-Dawley, plasma, oral, 50 mg/kg p.o.
[4] = male, Sprague-Dawley, plasma, oral, 200 mg/kg p.o.
[5] = male, Sprague-Dawley, plasma, po, 50 mg/kg p.o., approximate value
[6] = male, Sprague-Dawley, plasma, po, 200 mg/kg p.o., approximate value

**Q.** Which results are given for `C[C@@H]1CC=NN1C(=O)c1cccnc1` [MNP, (R)-(−)-5-methyl-1-nicotinoyl-2-pyrazoline]?
**A.** Time of secondary plasma peak (50 mg/kg oral dose): about 8 hours; ˜Clearance (50 mg/kg p.o., approximate value, Clearance = Dose/AUC): ~4.8 mL/min; Plasma levels at 24 hours post-administration (200 mg/kg oral dose): significant plasma levels; ˜Clearance (200 mg/kg p.o., approximate value, Clearance = Dose/AUC): ~7.8 mL/min; Oral bioavailability (in words) (based on AUC and Foral for both oral doses (50 and 200 mg/kg)): highly bioavailable; half-life (male, Sprague-Dawley, plasma, 5 mg/kg intravenous dose, read-out: Terminal half-life): ~30 min; concentration at 5 min [1]: 6550 ± 32 ng/mL; concentration at 15 min [1]: 4530 ± 60 ng/mL; concentration at 30 min [1]: 2880 ± 95 ng/mL; concentration at 60 min [1]: 1300 ± 75 ng/mL; concentration at 120 min [1]: 272 ± 9 ng/mL; concentration at 180 min [1]: 51 ± 3 ng/mL; concentration at 240 min [1]: 13 ± 1 ng/mL; concentration at 480 min [1]: 2 ± 1 ng/mL; concentration at 720 min [1]: 3 ± 2 ng/mL; concentration at 1440 min [1]: 2 ± 0.5 ng/mL; AUC [2]: ~4220 ng·h/mL; Cmax [2]: ~6550 ng/mL; Tmax [2]: ~5 min; clearance (male, Sprague-Dawley, plasma, iv, 5 mg/kg i.v., approximate value, Clearance = Dose/AUC): ~5.6 mL/min; bioavailability (male, Sprague-Dawley, plasma, oral, 50 mg/kg p.o. vs 5 mg/kg i.v., effects of saturation and accumulation unknown, read-out: ˜Bioavailability (Foral; %)): ~119%; concentration at 5 min [3]: 16000 ± 1720 ng/mL; concentration at 15 min [3]: 16000 ± 933 ng/mL; concentration at 30 min [3]: 13600 ± 1120 ng/mL; concentration at 60 min [3]: 9980 ± 976 ng/mL; concentration at 120 min [3]: 6140 ± 1980 ng/mL; concentration at 180 min [3]: 4180 ± 1640 ng/mL; concentration at 240 min [3]: 2470 ± 792 ng/mL; concentration at 480 min [3]: 2850 ± 755 ng/mL; concentration at 720 min [3]: 536 ± 327 ng/mL; concentration at 1440 min [3]: 9 ± 6 ng/mL; bioavailability (male, Sprague-Dawley, plasma, oral, 200 mg/kg p.o. vs 5 mg/kg i.v., effects of saturation and accumulation unknown, read-out: ˜Bioavailability (Foral; %)): ~80%; concentration at 5 min [4]: 50300 ± 2640 ng/mL; concentration at 15 min [4]: 41300 ± 3210 ng/mL; concentration at 30 min [4]: 36500 ± 5570 ng/mL; concentration at 60 min [4]: 21600 ± 3790 ng/mL; concentration at 120 min [4]: 11000 ± 2190 ng/mL; concentration at 180 min [4]: 5700 ± 1970 ng/mL; concentration at 240 min [4]: 5840 ± 1440 ng/mL; concentration at 480 min [4]: 2920 ± 343 ng/mL; concentration at 720 min [4]: 1160 ± 360 ng/mL; concentration at 1440 min [4]: 6250 ± 2830 ng/mL; AUC [5]: ~50200 ng·h/mL; Cmax [5]: ~16000 ng/mL; Tmax [5]: ~10 min; half-life (male, Sprague-Dawley, plasma, po, 50 mg/kg p.o., approximate value, read-out: ˜t1/2): ~150 min; AUC [6]: ~134000 ng·h/mL; Cmax [6]: ~50300 ng/mL; Tmax [6]: ~5 min; half-life (male, Sprague-Dawley, plasma, po, 200 mg/kg p.o., approximate value, read-out: ˜t1/2): ~90 min; bioavailability (male, Sprague-Dawley, plasma, po, based on the results of Example 2, read-out: Oral bioavailability): ≤ 80%; Oral absorption (oral gavage, significant plasma levels at the 5-min time point): rapidly absorbed
